Results taken from patent US9981942B2, “Piperidine derivatives having multimodal activity against pain” (LABORATORIOS DEL DR. ESTEVE S.A., priority 2013, dated 2018).

Test system: σ1 receptor and the μ-opiod receptor
Assay: μ and σ1 dual binding: combined class from the Ki of both radioligand assays
Design: species or system human; key to μ and σ1 dual binding: +: Both Ki-μ and Ki-σ1>=500 nM; ++: One Ki<500 nM while the other Ki is >=500 nM; +++: Both Ki-μ and Ki-σ1<500 nM; ++++: Both Ki-μ and Ki-σ1<100 nM
Conditions: transfected HEK-293 membranes (σ1), transfected CHO-K1 cell membranes (μ); for μ and σ1 dual binding: combined class for Ki-μ and Ki-σ1
Method in brief: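 Classes combine both Ki values, split at 500 nM and 100 nM. Human μ-opioid binding used 1 nM [3H]-DAMGO on CHO-K1 membranes (27 °C, 60 min, pH 7.4, naloxone 10 μM for NSB); human σ1 used 5 nM [3H](+)-pentazocine on HEK-293 membranes (37 °C, 120 min, pH 8, haloperidol 10 μM for NSB).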

Compound	μ and σ1 dual binding	Ki range for both μ and σ1 (dual-binding class) [nM]
CC(C)S(=O)(=O)Nc1cccc(C2CCN(Cc3cncn3Cc3ccccn3)CC2)c1 [Example 187, N-(3-(1-((1-(pyridin-2-ylmethyl)-1H-imidazol-5-yl)methyl)piperidin-4-yl)phenyl)propane-2-sulfonamide]	++	–
Oc1cccc(C2CCN(Cc3cn(Cc4ccccn4)cn3)CC2)c1 [Example 188, 3-(1-((1-(pyridin-2-ylmethyl)-1H-imidazol-4-yl)methyl)piperidin-4-yl)phenol]	++	–
Oc1cccc(C2CCN(Cc3cn(Cc4ncccc4F)cn3)CC2)c1 [Example 189, 3-(1-((1-((3-fluoropyridin-2-yl)methyl)-1H-imidazol-4-yl)methyl)piperidin-4-yl)phenol]	++	–
CCC(=O)Nc1cccc(C2CCN(Cc3cn(-c4ccccc4)nn3)CC2)n1 [Example 190, N-(6-(1-((1-phenyl-1H-1,2,3-triazol-4-yl)methyl)piperidin-4-yl)pyridin-2-yl)propionamide]	–	< 500
CS(=O)(=O)Nc1cccc(C2CCN(Cc3cn(-c4ccccc4)nn3)CC2)n1 [Example 191, N-(6-(1-((1-phenyl-1H-1,2,3-triazol-4-yl)methyl)piperidin-4-yl)pyridin-2-yl)methanesulfonamide]	++	–
CCC(=O)Nc1ccnc(C2CCN(Cc3cn(-c4ccccc4)nn3)CC2)c1 [Example 192, N-(2-(1-((1-phenyl-1H-1,2,3-triazol-4-yl)methyl)piperidin-4-yl)pyridin-4-yl)propionamide]	++	–
CS(=O)(=O)Nc1ccnc(C2CCN(Cc3cn(-c4ccccc4)nn3)CC2)c1 [Example 193, N-(2-(1-((1-phenyl-1H-1,2,3-triazol-4-yl)methyl)piperidin-4-yl)pyridin-4-yl)methanesulfonamide]	–	≥ 500
CS(=O)(=O)Nc1cncc(C2CCN(Cc3cn(-c4ccccc4)nn3)CC2)c1 [Example 194, N-(5-(1-((1-phenyl-1H-1,2,3-triazol-4-yl)methyl)piperidin-4-yl)pyridin-3-yl)methanesulfonamide]	–	≥ 500
CCC(=O)Nc1cncc(C2CCN(Cc3cn(-c4ccccc4)nn3)CC2)c1 [Example 195, N-(5-(1-((1-phenyl-1H-1,2,3-triazol-4-yl)methyl)piperidin-4-yl)pyridin-3-yl)propionamide]	–	≥ 500
CCC(=O)Nc1cc(C2CCN(Cc3cn(-c4ccccc4)nn3)CC2)ccn1 [Example 196, N-(4-(1-((1-phenyl-1H-1,2,3-triazol-4-yl)methyl)piperidin-4-yl)pyridin-2-yl)propionamide]	–	≥ 500
CS(=O)(=O)Nc1cc(C2CCN(Cc3cn(-c4ccccc4)nn3)CC2)ccn1 [Example 197, N-(4-(1-((1-phenyl-1H-1,2,3-triazol-4-yl)methyl)piperidin-4-yl)pyridin-2-yl)methanesulfonamide]	–	≥ 500
Oc1cccc(C2CCN(Cc3cn(-c4ccccc4)nn3)CC2)n1 [Example 198, 6-(1-((1-phenyl-1H-1,2,3-triazol-4-yl)methyl)piperidin-4-yl)pyridin-2-ol]	–	≥ 500
CCC(=O)Nc1cccc(C2CCN(Cc3cn(Cc4ccccc4)nn3)CC2)n1 [Example 199, N-(6-(1-((1-benzyl-1H-1,2,3-triazol-4-yl)methyl)piperidin-4-yl)pyridin-2-yl)propionamide]	++	–
CS(=O)(=O)Nc1cccc(C2CCN(Cc3cc(-c4ccccc4)no3)CC2)n1 [Example 200, N-(6-(1-((3-phenylisoxazol-5-yl)methyl)piperidin-4-yl)pyridin-2-yl)methanesulfonamide]	–	< 500
CCC(=O)Nc1cccc(C2CCN(Cc3cc(-c4ccccc4)no3)CC2)n1 [Example 201, N-(6-(1-((3-phenylisoxazol-5-yl)methyl)piperidin-4-yl)pyridin-2-yl)propionamide]	–	< 500
CCC(=O)Nc1cccc(C2CCN(Cc3cnn(-c4ccccc4)c3)CC2)n1 [Example 202, N-(6-(1-((1-phenyl-1H-pyrazol-4-yl)methyl)piperidin-4-yl)pyridin-2-yl)propionamide]	–	< 100
CS(=O)(=O)Nc1cccc(C2CCN(Cc3cnn(-c4ccccc4)c3)CC2)n1 [Example 203, N-(6-(1-((1-phenyl-1H-pyrazol-4-yl)methyl)piperidin-4-yl)pyridin-2-yl)methanesulfonamide]	–	< 500
CCC(=O)Nc1cccc(C2CCN(Cc3cn([C@@H]4c5ccccc5C[C@H]4O)nn3)CC2)n1 [Example 204, N-(6-(1-((1-((1R,2R)-2-hydroxy-2,3-dihydro-1H-inden-1-yl)-1H-1,2,3-triazol-4-yl)methyl)piperidin-4-yl)pyridin-2-yl)propionamide]	++	–

Compound	μ and σ1 dual binding	Ki range for both μ and σ1 (dual-binding class) [nM]
Oc1ncccc1C1CCN(Cc2cn(-c3ccccc3)nn2)CC1 [Example 205, 3-(1-((1-phenyl-1H-1,2,3-triazol-4-yl)methyl)piperidin-4-yl)pyridin-2-ol]	++	–
CC(C)S(=O)(=O)Nc1cccc(C2CCN(Cc3cn(Cc4ccccn4)nn3)CC2)n1 [Example 206, N-(6-(1-((1-(pyridin-2-ylmethyl)-1H-1,2,3-triazol-4-yl)methyl)piperidin-4-yl)pyridin-2-yl)propane-2-sulfonamide]	–	< 500
CC(C)S(=O)(=O)Nc1cccc(C2CCN(Cc3cn(-c4ccccc4)nn3)CC2)n1 [Example 207, N-(6-(1-((1-phenyl-1H-1,2,3-triazol-4-yl)methyl)piperidin-4-yl)pyridin-2-yl)propane-2-sulfonamide]	–	< 500
CC(C)S(=O)(=O)Nc1cccc(C2CCN(Cc3cn(-c4ccccc4F)nn3)CC2)n1 [Example 208, N-(6-(1-((1-(2-fluorophenyl)-1H-1,2,3-triazol-4-yl)methyl)piperidin-4-yl)pyridin-2-yl)propane-2-sulfonamide]	–	< 500
CC(C)S(=O)(=O)Nc1cccc(C2CCN(Cc3cn(Cc4ncccc4F)nn3)CC2)n1 [Example 209, N-(6-(1-((1-((3-fluoropyridin-2-yl)methyl)-1H-1,2,3-triazol-4-yl)methyl)piperidin-4-yl)pyridin-2-yl)propane-2-sulfonamide]	++	–
CC(C)S(=O)(=O)Nc1cccc(C2CCN(Cc3cn(Cc4ccc(F)cn4)nn3)CC2)n1 [Example 210, N-(6-(1-((1-((5-fluoropyridin-2-yl)methyl)-1H-1,2,3-triazol-4-yl)methyl)piperidin-4-yl)pyridin-2-yl)propane-2-sulfonamide]	++	–
CCC(=O)Nc1cccc(C2CCN(Cc3cn(-c4ccccc4F)nn3)CC2)n1 [Example 211, N-(6-(1-((1-(2-fluorophenyl)-1H-1,2,3-triazol-4-yl)methyl)piperidin-4-yl)pyridin-2-yl)propionamide]	++	–
CC(C)S(=O)(=O)Nc1cccc(C2CCN(Cc3cn(Cc4ncccc4Cl)nn3)CC2)n1 [Example 212, N-(6-(1-((1-((3-chloropyridin-2-yl)methyl)-1H-1,2,3-triazol-4-yl)methyl)piperidin-4-yl)pyridin-2-yl)propane-2-sulfonamide]	++	–
CC(C)S(=O)(=O)Nc1cccc(C2CCN(Cc3cn(Cc4ccc(Cl)cn4)nn3)CC2)n1 [Example 213, N-(6-(1-((1-((5-chloropyridin-2-yl)methyl)-1H-1,2,3-triazol-4-yl)methyl)piperidin-4-yl)pyridin-2-yl)propane-2-sulfonamide]	++	–
Oc1cccc(C2CCN(Cc3cn(Cc4ccc(F)cn4)cn3)CC2)c1 [Example 215, 3-(1-((1-((5-fluoropyridin-2-yl)methyl)-1H-imidazol-4-yl)methyl)piperidin-4-yl)phenol]	–	< 500
Oc1cccc(C2CCN(Cc3cn(-c4ncccc4O)nn3)CC2)c1 [Example 216, 2-(4-((4-(3-hydroxyphenyl)piperidin-1-yl)methyl)-1H-1,2,3-triazol-1-yl)pyridin-3-ol]	++	–
COc1ccc(-n2cc(CN3CCC(c4cccc(O)c4)CC3)nn2)nc1 [Example 217, 3-(1-((1-(5-methoxypyridin-2-yl)-1H-1,2,3-triazol-4-yl)methyl)piperidin-4-yl)phenol]	–	< 500
Oc1cccc(C2CCN(Cc3cn(-c4ncccc4C(F)(F)F)nn3)CC2)c1 [Example 218, 3-(1-((1-(3-(trifluoromethyl)pyridin-2-yl)-1H-1,2,3-triazol-4-yl)methyl)piperidin-4-yl)phenol]	–	< 500
COc1cccnc1-n1cc(CN2CCC(c3cccc(O)c3)CC2)nn1 [Example 219, 3-(1-((1-(3-methoxypyridin-2-yl)-1H-1,2,3-triazol-4-yl)methyl)piperidin-4-yl)phenol]	++	–
Oc1ccc(-n2cc(CN3CCC(c4cccc(O)c4)CC3)nn2)nc1 [Example 220, 6-(4-((4-(3-hydroxyphenyl)piperidin-1-yl)methyl)-1H-1,2,3-triazol-1-yl)pyridin-3-ol]	++	–
Oc1ccc(C2CCN(Cc3cn(-c4ccccc4)nn3)CC2)cc1 [Example 221, 4-(1-((1-phenyl-1H-1,2,3-triazol-4-yl)methyl)piperidin-4-yl)phenol]	–	< 500
Oc1ccccc1C1CCN(Cc2cn(-c3ccccc3)nn2)CC1 [Example 222, 2-(1-((1-phenyl-1H-1,2,3-triazol-4-yl)methyl)piperidin-4-yl)phenol]	–	< 500
